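1) Cells in 96-well plates. 2) Compound, 48 h, 5 concentrations. 3) Linear interpolation between surrounding doses. 4) Unreached endpoint = highest concentration. At the GI50, growth is halved. TGI: concentration producing complete growth inhibition.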
Assays:
Experiment in all cases: NCI tumour cell line growth inhibition, 48 h; in the data active = GI50 below about 0.43 µM; inactive = the rest
M14 melanoma = tested on: M14 melanoma
SK-MEL-28 melanoma = tested on: SK-MEL-28 melanoma
HS 578T breast = tested on: HS 578T breast
SF-539 CNS = tested on: SF-539 CNS
UACC-257 melanoma = tested on: UACC-257 melanoma
HCT-15 colon = tested on: HCT-15 colon
UACC-62 melanoma = tested on: UACC-62 melanoma
SNB-19 CNS = tested on: SNB-19 CNS
SN12C renal = tested on: SN12C renal
UO-31 renal = tested on: UO-31 renal
A549 NSCLC = tested on: A549 NSCLC
SK-MEL-2 melanoma = tested on: SK-MEL-2 melanoma
KM12 colon = tested on: KM12 colon
SR leukemia = tested on: SR leukemia
CCRF-CEM leukemia = tested on: CCRF-CEM leukemia
SF-268 CNS = tested on: SF-268 CNS
MDA-MB-435 = tested on: MDA-MB-435
786-0 renal = tested on: 786-0 renal
OVCAR-5 ovarian = tested on: OVCAR-5 ovarian
MCF7 breast = tested on: MCF7 breast
OVCAR-8 ovarian = tested on: OVCAR-8 ovarian
SW-620 colon = tested on: SW-620 colon
HOP-62 NSCLC = tested on: HOP-62 NSCLC
BT-549 breast = tested on: BT-549 breast
PC-3 prostate = tested on: PC-3 prostate
HOP-92 NSCLC = tested on: HOP-92 NSCLC
HT29 colon = tested on: HT29 colon
U251 CNS = tested on: U251 CNS
OVCAR-3 ovarian = tested on: OVCAR-3 ovarian
K-562 leukemia = tested on: K-562 leukemia
RPMI-8226 leukemia = tested on: RPMI-8226 leukemia
MOLT-4 leukemia = tested on: MOLT-4 leukemia
SK-MEL-5 melanoma = tested on: SK-MEL-5 melanoma
ACHN renal = tested on: ACHN renal
DU-145 prostate = tested on: DU-145 prostate
NCI-H226 lung = tested on: NCI-H226 lung
CAKI-1 renal = tested on: CAKI-1 renal
LOX IMVI melanoma = tested on: LOX IMVI melanoma
T-47D breast = tested on: T-47D breast
COLO 205 colon = tested on: COLO 205 colon
IGROV1 ovarian = tested on: IGROV1 ovarian
MDA-MB-231 breast = tested on: MDA-MB-231 breast
SF-295 CNS = tested on: SF-295 CNS
NCI/ADR-RES ovarian = tested on: NCI/ADR-RES ovarian
NCI-H522 lung = tested on: NCI-H522 lung
RXF 393 renal = tested on: RXF 393 renal
SK-OV-3 ovarian = tested on: SK-OV-3 ovarian
SNB-75 CNS = tested on: SNB-75 CNS
TK-10 renal = tested on: TK-10 renal
HL-60(TB) leukemia = tested on: HL-60(TB) leukemia
NCI-H23 lung = tested on: NCI-H23 lung
NCI-H460 lung = tested on: NCI-H460 lung
OVCAR-4 ovarian = tested on: OVCAR-4 ovarian
HCC-2998 colon = tested on: HCC-2998 colon
HCT-116 colon = tested on: HCT-116 colon

CC(C)N(CCCNC(=O)Nc1ccc(C(C)(C)C)cc1)C[C@H]1O[C@@H](n2ccc3c(N)ncnc32)[C@H](O)[C@@H]1O
> 100 µM: TGI (M14 melanoma) | TGI (SK-MEL-28 melanoma) | TGI (HS 578T breast) | TGI (SF-539 CNS) | TGI (UACC-257 melanoma) | TGI (HCT-15 colon) | TGI (UACC-62 melanoma) | TGI (SNB-19 CNS) | TGI (SN12C renal) | TGI (UO-31 renal) | TGI (A549 NSCLC) | TGI (SK-MEL-2 melanoma) | TGI (KM12 colon) | TGI (SR leukemia) | TGI (CCRF-CEM leukemia) | TGI (SF-268 CNS) | TGI (MDA-MB-435) | TGI (786-0 renal) | TGI (OVCAR-5 ovarian) | TGI (MCF7 breast) | TGI (OVCAR-8 ovarian) | TGI (SW-620 colon) | TGI (HOP-62 NSCLC) | TGI (BT-549 breast) | TGI (PC-3 prostate) | TGI (HOP-92 NSCLC) | TGI (HT29 colon) | TGI (U251 CNS) | TGI (OVCAR-3 ovarian) | TGI (K-562 leukemia) | TGI (RPMI-8226 leukemia) | TGI (MOLT-4 leukemia) | TGI (SK-MEL-5 melanoma) | TGI (ACHN renal) | TGI (DU-145 prostate) | TGI (NCI-H226 lung) | TGI (CAKI-1 renal) | TGI (LOX IMVI melanoma) | TGI (T-47D breast) | TGI (COLO 205 colon) | TGI (IGROV1 ovarian) | TGI (MDA-MB-231 breast) | TGI (SF-295 CNS) | TGI (NCI/ADR-RES ovarian) | TGI (NCI-H522 lung) | TGI (RXF 393 renal) | TGI (SK-OV-3 ovarian) | TGI (SNB-75 CNS) | TGI (TK-10 renal) | TGI (HL-60(TB) leukemia) | TGI (NCI-H23 lung) | TGI (NCI-H460 lung) | TGI (OVCAR-4 ovarian) | TGI (HCC-2998 colon) | TGI (HCT-116 colon)
inactive: GI50 (M14 melanoma) > 100 µM | GI50 (SK-MEL-28 melanoma) > 100 µM | GI50 (HS 578T breast) > 100 µM | GI50 (SF-539 CNS) > 100 µM | GI50 (UACC-257 melanoma) > 100 µM | GI50 (HCT-15 colon) > 100 µM | GI50 (UACC-62 melanoma) > 100 µM | GI50 (SNB-19 CNS) > 100 µM | GI50 (SN12C renal) > 100 µM | GI50 (UO-31 renal) > 100 µM | GI50 (A549 NSCLC) > 100 µM | GI50 (SK-MEL-2 melanoma) > 100 µM | GI50 (KM12 colon) > 100 µM | GI50 (SR leukemia) > 100 µM | GI50 (CCRF-CEM leukemia) > 100 µM | GI50 (SF-268 CNS) > 100 µM | GI50 (MDA-MB-435) > 100 µM | GI50 (786-0 renal) > 100 µM | GI50 (OVCAR-5 ovarian) > 100 µM | GI50 (MCF7 breast) > 100 µM | GI50 (OVCAR-8 ovarian) > 100 µM | GI50 (SW-620 colon) > 100 µM | GI50 (HOP-62 NSCLC) > 100 µM | GI50 (BT-549 breast) > 100 µM | GI50 (PC-3 prostate) > 100 µM | GI50 (HOP-92 NSCLC) > 100 µM | GI50 (HT29 colon) > 100 µM | GI50 (U251 CNS) > 100 µM | GI50 (OVCAR-3 ovarian) > 100 µM | GI50 (K-562 leukemia) > 100 µM | GI50 (RPMI-8226 leukemia) > 100 µM | GI50 (MOLT-4 leukemia) > 100 µM | GI50 (SK-MEL-5 melanoma) > 100 µM | GI50 (ACHN renal) > 100 µM | GI50 (DU-145 prostate) > 100 µM | GI50 (NCI-H226 lung) > 100 µM | GI50 (CAKI-1 renal) > 100 µM | GI50 (LOX IMVI melanoma) > 100 µM | GI50 (T-47D breast) > 100 µM | GI50 (COLO 205 colon) > 100 µM | GI50 (IGROV1 ovarian) > 100 µM | GI50 (MDA-MB-231 breast) > 100 µM | GI50 (SF-295 CNS) > 100 µM | GI50 (NCI/ADR-RES ovarian) > 100 µM | GI50 (NCI-H522 lung) > 100 µM | GI50 (RXF 393 renal) > 100 µM | GI50 (SK-OV-3 ovarian) > 100 µM | GI50 (SNB-75 CNS) 26.2 µM | GI50 (TK-10 renal) > 100 µM | GI50 (HL-60(TB) leukemia) > 100 µM | GI50 (NCI-H23 lung) > 100 µM | GI50 (NCI-H460 lung) > 100 µM | GI50 (OVCAR-4 ovarian) > 100 µM | GI50 (HCC-2998 colon) > 100 µM | GI50 (HCT-116 colon) > 100 µM
